# According to ChEMBL document CHEMBL3611972, “Leishmanicidal, antiproteolytic, and mutagenic evaluation of alkyltriazoles and alkylphosphocholines” (Eur J Med Chem, 2015):
# How the values were obtained:
# Salmonella typhimurium [1] = test: Mutagenicity in Salmonella typhimurium TA98 assessed as mutagenicity index at 435.85 uM/plate incubated for 90 mins at 37 degC in absence of liver S9 fractions by Ames test relative to untreated control; type: toxicity, organism-based; conditions: salmonella enterica subsp. enterica serovar typhimurium, 1.5 h
# Salmonella typhimurium [2] = test: Mutagenicity in Salmonella typhimurium TA97a assessed as mutagenicity index at 150.98 uM/plate incubated for 90 mins at 37 degC in presence of liver S9 fractions by Ames test relative to untreated control; type: toxicity, organism-based; conditions: salmonella enterica subsp. enterica serovar typhimurium, s9, 1.5 h
# Leishmania amazonensis [3] = test: Leishmanicidal activity against Leishmania amazonensis MHOM/BR/71973/M2269 amastigotes infected in mouse peritoneal macrophages assessed as reduction in surviving parasites incubated for 72 hrs by Giemsa staining based optical light microscopy; type: functional, organism-based; conditions: MHOM/BR/71973/M2269, 72 h
# [4] = Cytotoxicity against mouse peritoneal macrophages assessed as reduction in cell viability incubated for 72 hrs by MTT assay; type: cell-based, Peritoneal macrophage cell
# Salmonella typhimurium [5] = test: Mutagenicity in Salmonella typhimurium TA98 assessed as mutagenicity index at 570.37 uM/plate incubated for 90 mins at 37 degC in presence of liver S9 fractions by Ames test relative to untreated control; type: toxicity, organism-based; conditions: salmonella enterica subsp. enterica serovar typhimurium, s9, 1.5 h
# Salmonella typhimurium [6] = test: Mutagenicity in Salmonella typhimurium TA98 assessed as mutagenicity index at 700.00 uM/plate incubated for 90 mins at 37 degC in presence of liver S9 fractions by Ames test relative to untreated control; type: toxicity, organism-based; conditions: salmonella enterica subsp. enterica serovar typhimurium, s9, 1.5 h
# [7] = Inhibition of Leishmania mexicana cysteine protease r-CPB2.8 using Z-FR-AMC fluorogenic substrate by spectrofluorometry
# Salmonella typhimurium [8] = test: Mutagenicity in Salmonella typhimurium TA98 assessed as mutagenicity index at 150.98 uM/plate incubated for 90 mins at 37 degC in presence of liver S9 fractions by Ames test relative to untreated control; type: toxicity, organism-based; conditions: salmonella enterica subsp. enterica serovar typhimurium, s9, 1.5 h
# Salmonella typhimurium [9] = test: Mutagenicity in Salmonella typhimurium TA100 assessed as mutagenicity index at 150.98 uM/plate incubated for 90 mins at 37 degC in presence of liver S9 fractions by Ames test relative to untreated control; type: toxicity, organism-based; conditions: salmonella enterica subsp. enterica serovar typhimurium, s9, 1.5 h
# [10] = Selectivity index, ratio of CC50 for mouse peritoneal macrophages to IC50 for Leishmania amazonensis MHOM/BR/71973/M2269 amastigotes infected in mouse peritoneal macrophages; type: functional
# Leishmania amazonensis [11] = test: microbe, parasite or virus in culture; type: functional, organism-based; conditions: MHOM/BR/71973/M2269, 72 h
# Description: Leishmanicidal activity against Leishmania amazonensis MHOM/BR/71973/M2269 promastigotes assessed as reduction in surviving parasites incubated for 72 hrs by Neubauer's chamber based cell counting method
# Salmonella typhimurium [12] = test: Mutagenicity in Salmonella typhimurium TA100 assessed as mutagenicity index at 700.00 uM/plate incubated for 90 mins at 37 degC in absence of liver S9 fractions by Ames test relative to untreated control; type: toxicity, organism-based; conditions: salmonella enterica subsp. enterica serovar typhimurium, 1.5 h
# Salmonella typhimurium [13] = test: Mutagenicity in Salmonella typhimurium TA98 assessed as mutagenicity index at 296.15 uM/plate incubated for 90 mins at 37 degC in presence of liver S9 fractions by Ames test relative to untreated control; type: toxicity, organism-based; conditions: salmonella enterica subsp. enterica serovar typhimurium, s9, 1.5 h
# Salmonella typhimurium [14] = test: Mutagenicity in Salmonella typhimurium TA98 assessed as mutagenicity index at 700.00 uM/plate incubated for 90 mins at 37 degC in absence of liver S9 fractions by Ames test relative to untreated control; type: toxicity, organism-based; conditions: salmonella enterica subsp. enterica serovar typhimurium, 1.5 h
# Salmonella typhimurium [15] = test: Mutagenicity in Salmonella typhimurium TA102 assessed as mutagenicity index at 570.37 uM/plate incubated for 90 mins at 37 degC in absence of liver S9 fractions by Ames test relative to untreated control; type: toxicity, organism-based; conditions: salmonella enterica subsp. enterica serovar typhimurium, 1.5 h
# Salmonella typhimurium [16] = test: Mutagenicity in Salmonella typhimurium TA102 assessed as mutagenicity index at 700.00 uM/plate incubated for 90 mins at 37 degC in absence of liver S9 fractions by Ames test relative to untreated control; type: toxicity, organism-based; conditions: salmonella enterica subsp. enterica serovar typhimurium, 1.5 h
# Salmonella typhimurium [17] = test: Mutagenicity in Salmonella typhimurium TA102 assessed as mutagenicity index at 570.37 uM/plate incubated for 90 mins at 37 degC in presence of liver S9 fractions by Ames test relative to untreated control; type: toxicity, organism-based; conditions: salmonella enterica subsp. enterica serovar typhimurium, s9, 1.5 h
# Salmonella typhimurium [18] = test: Mutagenicity in Salmonella typhimurium TA97a assessed as mutagenicity index at 1454.55 uM/plate incubated for 90 mins at 37 degC in presence of liver S9 fractions by Ames test relative to control; type: toxicity, organism-based; conditions: salmonella enterica subsp. enterica serovar typhimurium, s9, 1.5 h
# Salmonella typhimurium [19] = test: Mutagenicity in Salmonella typhimurium TA98 assessed as mutagenicity index at 1185.19 uM/plate incubated for 90 mins at 37 degC in absence of liver S9 fractions by Ames test relative to control; type: toxicity, organism-based; conditions: salmonella enterica subsp. enterica serovar typhimurium, 1.5 h
# Salmonella typhimurium [20] = test: Mutagenicity in Salmonella typhimurium TA97a assessed as mutagenicity index at 313.73 uM/plate incubated for 90 mins at 37 degC in presence of liver S9 fractions by Ames test relative to control; type: toxicity, organism-based; conditions: salmonella enterica subsp. enterica serovar typhimurium, s9, 1.5 h
# Salmonella typhimurium [21] = test: Mutagenicity in Salmonella typhimurium TA97a assessed as mutagenicity index at 905.66 uM/plate incubated for 90 mins at 37 degC in presence of liver S9 fractions by Ames test relative to control; type: toxicity, organism-based; conditions: salmonella enterica subsp. enterica serovar typhimurium, s9, 1.5 h
# Salmonella typhimurium [22] = test: Mutagenicity in Salmonella typhimurium TA97a assessed as mutagenicity index at 1454.55 uM/plate incubated for 90 mins at 37 degC in absence of liver S9 fractions by Ames test relative to control; type: toxicity, organism-based; conditions: salmonella enterica subsp. enterica serovar typhimurium, 1.5 h
# Salmonella typhimurium [23] = test: Mutagenicity in Salmonella typhimurium TA100 assessed as mutagenicity index at 616.38 uM/plate incubated for 90 mins at 37 degC in absence of liver S9 fractions by Ames test relative to control; type: toxicity, organism-based; conditions: salmonella enterica subsp. enterica serovar typhimurium, 1.5 h
# Salmonella typhimurium [24] = test: Mutagenicity in Salmonella typhimurium TA100 assessed as mutagenicity index at 905.66 uM/plate incubated for 90 mins at 37 degC in absence of liver S9 fractions by Ames test relative to control; type: toxicity, organism-based; conditions: salmonella enterica subsp. enterica serovar typhimurium, 1.5 h
# Salmonella typhimurium [25] = test: Mutagenicity in Salmonella typhimurium TA100 assessed as mutagenicity index at 313.73 uM/plate incubated for 90 mins at 37 degC in absence of liver S9 fractions by Ames test relative to control; type: toxicity, organism-based; conditions: salmonella enterica subsp. enterica serovar typhimurium, 1.5 h
# Salmonella typhimurium [26] = test: Mutagenicity in Salmonella typhimurium TA98 assessed as mutagenicity index at 313.73 uM/plate incubated for 90 mins at 37 degC in presence of liver S9 fractions by Ames test relative to control; type: toxicity, organism-based; conditions: salmonella enterica subsp. enterica serovar typhimurium, s9, 1.5 h
# Salmonella typhimurium [27] = test: Mutagenicity in Salmonella typhimurium TA102 assessed as mutagenicity index at 1185.19 uM/plate incubated for 90 mins at 37 degC in absence of liver S9 fractions by Ames test relative to control; type: toxicity, organism-based; conditions: salmonella enterica subsp. enterica serovar typhimurium, 1.5 h
# Salmonella typhimurium [28] = test: Mutagenicity in Salmonella typhimurium TA98 assessed as mutagenicity index at 616.38 uM/plate incubated for 90 mins at 37 degC in presence of liver S9 fractions by Ames test relative to control; type: toxicity, organism-based; conditions: salmonella enterica subsp. enterica serovar typhimurium, s9, 1.5 h
# Salmonella typhimurium [29] = test: Mutagenicity in Salmonella typhimurium TA98 assessed as mutagenicity index at 1185.19 uM/plate incubated for 90 mins at 37 degC in presence of liver S9 fractions by Ames test relative to control; type: toxicity, organism-based; conditions: salmonella enterica subsp. enterica serovar typhimurium, s9, 1.5 h
# Salmonella typhimurium [30] = test: Mutagenicity in Salmonella typhimurium TA100 assessed as mutagenicity index at 1454.55 uM/plate incubated for 90 mins at 37 degC in absence of liver S9 fractions by Ames test relative to control; type: toxicity, organism-based; conditions: salmonella enterica subsp. enterica serovar typhimurium, 1.5 h
# Salmonella typhimurium [31] = test: Mutagenicity in Salmonella typhimurium TA98 assessed as mutagenicity index at 616.38 uM/plate incubated for 90 mins at 37 degC in absence of liver S9 fractions by Ames test relative to control; type: toxicity, organism-based; conditions: salmonella enterica subsp. enterica serovar typhimurium, 1.5 h
# Salmonella typhimurium [32] = test: Mutagenicity in Salmonella typhimurium TA100 assessed as mutagenicity index at 1185.19 uM/plate incubated for 90 mins at 37 degC in presence of liver S9 fractions by Ames test relative to control; type: toxicity, organism-based; conditions: salmonella enterica subsp. enterica serovar typhimurium, s9, 1.5 h
smiles,measurement,setting,value
CS(=O)(=O)OCCCCCCCCCCCCn1cc(CCCO)nn1,Activity_index,Salmonella typhimurium [1],1.1
same,Activity_index,Salmonella typhimurium [2],0.9
same,IC50,Leishmania amazonensis [3],14.2 µM
same,CC50 at 72 h,[4],163 µM
same,Activity_index,Salmonella typhimurium [5],0.8
same,Activity_index,Salmonella typhimurium [6],1.2
same,IC50,[7],8.18 µM
same,Activity_index,Salmonella typhimurium [8],1.1
same,Activity_index,Salmonella typhimurium [9],0.9
same,Ratio CC50/IC50,[10],11.47
same,IC50,Leishmania amazonensis [11],28.5 µM
same,Activity_index,Salmonella typhimurium [12],1
same,Activity_index,Salmonella typhimurium [13],1.1
same,Activity_index,Salmonella typhimurium [14],1.3
same,Activity_index,Salmonella typhimurium [15],1
same,Activity_index,Salmonella typhimurium [16],1
same,Activity_index,Salmonella typhimurium [17],1.4
CCOC(=O)c1cn(CCCCCCCCCOS(C)(=O)=O)nn1,Activity_index,Salmonella typhimurium [18],0.8
same,Activity_index,Salmonella typhimurium [19],1.5
same,IC50,Leishmania amazonensis [3],76.7 µM
same,Activity_index,Salmonella typhimurium [20],0.8
same,CC50 at 72 h,[4],983 µM
same,Activity_index,Salmonella typhimurium [21],0.9
same,Activity_index,Salmonella typhimurium [22],1.4
same,Activity_index,Salmonella typhimurium [23],1.3
same,Activity_index,Salmonella typhimurium [24],1.2
same,Activity_index,Salmonella typhimurium [25],1.2
same,IC50,[7],0.857 µM
same,Ratio CC50/IC50,[10],12.82
same,IC50,Leishmania amazonensis [11],37.2 µM
same,Activity_index,Salmonella typhimurium [26],1
same,Activity_index,Salmonella typhimurium [27],1.2
same,Activity_index,Salmonella typhimurium [28],0.8
same,Activity_index,Salmonella typhimurium [29],0.8
same,Activity_index,Salmonella typhimurium [30],1.2
same,Activity_index,Salmonella typhimurium [31],1.2
same,Activity_index,Salmonella typhimurium [32],0.9
